17 molecules from US8048825B2, “Haloalkylsulfonanilide derivatives or salt thereof, herbicide comprising the derivatives as active ingredient, and use of the herbicide” (Nihon Nohyaku Co., Ltd., priority 2006, dated 2011) can be followed below.

What all share (type): in vivo
In assay [1] the test system is Lindernia procumbens. Nature of the assay: Herbicidal efficacy on paddy field weeds of pre-emergence stage (Pre), Test Example 1. The conditions noted are these: 1000 g/ha as active ingredient, examined after 21 days. An outline of the steps: (§1)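 Pre-emergence paddy test: 1000 g/ha active ingredient, formulated and water-diluted, dropped onto 5 cm floodwater one day after sowing both weeds in clay loam. After 21 days in greenhouse, inhibition relative to untreated control rated on 0 (0%) to 5 (100%) scale.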

Assay [2] has as its system Scirpus juncoides. The assay is described as above. To be noted: 1000 g/ha as active ingredient, examined after 21 days. An outline of the steps:
as §1

The subject of another assay is Echinochloa crus-galli. The assay can be described thus: Herbicidal effect on paddy field weeds of post-emergence stage (Post), Test Example 2. To be noted: one-leaf stage, 1000 g/ha as active ingredient, examined after 21 days. Summed up:
(§2)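 Post-emergence paddy test: formulated compound added to 5 cm standing water at 1000 g/ha a.i. when weeds reached one-leaf stage in clay loam pots in greenhouse. Growth inhibition rated 21 days later versus untreated control on a 0 (0%) to 5 (100%) scale.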

The subject of assay [3] is Lindernia procumbens. The assay is described as above. The conditions noted are these: one-leaf stage, 1000 g/ha as active ingredient, examined after 21 days. Summed up: as §2
In assay [4] the test system is Scirpus juncoides. The assay is described as above. The conditions noted are these: one-leaf stage, 1000 g/ha as active ingredient, examined after 21 days. Summed up: as §2

As for `CCOC(=O)N(c1ccccc1CN1CCC(C)COC1=O)S(=O)(=O)C(F)(F)F` (racemic) [2-25], the “Lindernia procumbens pre (herbicidal effect)” value (“Lindernia procumbens pre” below) in the assay with Lindernia procumbens [1] is 4 (90%-99% herbicidal effect, phytotoxicity). Besides, in the assay on Scirpus juncoides [2], the “Scirpus juncoides pre (herbicidal effect)” value (from here on “Scirpus juncoides pre”) is on record as 4 (90%-99% herbicidal effect, phytotoxicity). Moreover, the “Echinochloa crus-galli post (herbicidal effect)” value (“Echinochloa crus-galli post” below) in the assay on Echinochloa crus-galli is given as 4 (90%-99% herbicidal effect, phytotoxicity). In the assay with Lindernia procumbens [3], the “Lindernia procumbens post (herbicidal effect)” value (“Lindernia procumbens post” for short) was 4 (90%-99% herbicidal effect, phytotoxicity). Also, the “Scirpus juncoides post (herbicidal effect)” value (“Scirpus juncoides post” below) in the assay with Scirpus juncoides [4] was 4 (90%-99% herbicidal effect, phytotoxicity).

As for `CCCCOC(=O)N(c1ccccc1CN1CCC(C)COC1=O)S(=O)(=O)C(F)(F)F` (racemic) [2-27], in the assay with Lindernia procumbens [1], the “Lindernia procumbens pre” value is 4 (90%-99% herbicidal effect, phytotoxicity). Besides, the “Scirpus juncoides pre” value in the assay on Scirpus juncoides [2] is recorded as 4 (90%-99% herbicidal effect, phytotoxicity). Further, the “Echinochloa crus-galli post” value in the assay with Echinochloa crus-galli is reported as 4 (90%-99% herbicidal effect, phytotoxicity). Moreover, in the assay on Lindernia procumbens [3], the “Lindernia procumbens post” value is recorded as 4 (90%-99% herbicidal effect, phytotoxicity). Also, the “Scirpus juncoides post” value with Scirpus juncoides [4] was 4 (90%-99% herbicidal effect, phytotoxicity).

Consider `CC1CCN(Cc2ccccc2N(C(=O)OCC(Cl)(Cl)Cl)S(=O)(=O)C(F)(F)F)C(=O)OC1` (racemic) [2-34], for which, in the assay on Lindernia procumbens [1], the “Lindernia procumbens pre” value is on record as 4 (90%-99% herbicidal effect, phytotoxicity). Further, the “Scirpus juncoides pre” value in the assay with Scirpus juncoides [2] was 4 (90%-99% herbicidal effect, phytotoxicity). Also, in the assay on Echinochloa crus-galli, the “Echinochloa crus-galli post” value is recorded as 4 (90%-99% herbicidal effect, phytotoxicity). The “Lindernia procumbens post” value with Lindernia procumbens [3] is given as 4 (90%-99% herbicidal effect, phytotoxicity). Besides, the “Scirpus juncoides post” value in the assay on Scirpus juncoides [4] is 4 (90%-99% herbicidal effect, phytotoxicity).

As for `CCOC(=O)N(c1ccccc1CN1CCC(C)(c2ccccc2F)OC1=O)S(=O)(=O)C(F)(F)F` (racemic) [Compound 1-430], in the assay with Lindernia procumbens [1], the “Lindernia procumbens pre” value is 5 (100% herbicidal effect, phytotoxicity). In addition, the “Scirpus juncoides pre” value in the assay with Scirpus juncoides [2] is 5 (100% herbicidal effect, phytotoxicity). Moreover, the “Echinochloa crus-galli post” value in the assay with Echinochloa crus-galli is recorded as 4 (90%-99% herbicidal effect, phytotoxicity). Moreover, the “Lindernia procumbens post” value in the assay on Lindernia procumbens [3] is listed as 5 (100% herbicidal effect, phytotoxicity). Further, in the assay on Scirpus juncoides [4], the “Scirpus juncoides post” value is on record as 4 (90%-99% herbicidal effect, phytotoxicity).

In the case of `COC(=O)N(c1ccccc1CN1CCC(C)(c2c(F)cccc2F)OC1=O)S(=O)(=O)C(F)(F)F` (racemic) [Compound 1-440], in the assay on Lindernia procumbens [1], the “Lindernia procumbens pre” value is 5 (100% herbicidal effect, phytotoxicity). Besides, the “Scirpus juncoides pre” value with Scirpus juncoides [2] is 4 (90%-99% herbicidal effect, phytotoxicity). In addition, the “Echinochloa crus-galli post” value with Echinochloa crus-galli is reported as 4 (90%-99% herbicidal effect, phytotoxicity). In the assay with Lindernia procumbens [3], the “Lindernia procumbens post” value is given as 5 (100% herbicidal effect, phytotoxicity). For the same molecule, the “Scirpus juncoides post” value in the assay on Scirpus juncoides [4] was 4 (90%-99% herbicidal effect, phytotoxicity).

As to `CCOC(=O)N(c1ccccc1CN1CCC(C)(c2c(F)cccc2F)OC1=O)S(=O)(=O)C(F)(F)F` (racemic) [Compound 1-441], in the assay with Lindernia procumbens [1], the “Lindernia procumbens pre” value is reported as 5 (100% herbicidal effect, phytotoxicity). Also, the “Scirpus juncoides pre” value with Scirpus juncoides [2] is listed as 5 (100% herbicidal effect, phytotoxicity). Also, the “Echinochloa crus-galli post” value with Echinochloa crus-galli was 5 (100% herbicidal effect, phytotoxicity). For the same molecule, the “Lindernia procumbens post” value in the assay with Lindernia procumbens [3] is reported as 5 (100% herbicidal effect, phytotoxicity). In addition, the “Scirpus juncoides post” value in the assay with Scirpus juncoides [4] is listed as 4 (90%-99% herbicidal effect, phytotoxicity).

Regarding `CCC1(C(C)C)CCN(Cc2ccccc2NS(=O)(=O)C(F)(F)F)C(=O)O1` (racemic) [Compound 1-450], the “Lindernia procumbens pre” value in the assay with Lindernia procumbens [1] is 5 (100% herbicidal effect, phytotoxicity). Further, the “Scirpus juncoides pre” value with Scirpus juncoides [2] was 5 (100% herbicidal effect, phytotoxicity). Moreover, in the assay with Echinochloa crus-galli, the “Echinochloa crus-galli post” value is 4 (90%-99% herbicidal effect, phytotoxicity). The “Lindernia procumbens post” value in the assay on Lindernia procumbens [3] is reported as 5 (100% herbicidal effect, phytotoxicity). In the assay on Scirpus juncoides [4], the “Scirpus juncoides post” value is reported as 4 (90%-99% herbicidal effect, phytotoxicity).

With `CCOC(=O)N(c1ccccc1CN1CCC(CC)(C(C)C)OC1=O)S(=O)(=O)C(F)(F)F` (racemic) [Compound 1-452], the “Lindernia procumbens pre” value in the assay on Lindernia procumbens [1] was 5 (100% herbicidal effect, phytotoxicity). Moreover, in the assay on Scirpus juncoides [2], the “Scirpus juncoides pre” value is reported as 5 (100% herbicidal effect, phytotoxicity). The “Echinochloa crus-galli post” value in the assay on Echinochloa crus-galli is reported as 4 (90%-99% herbicidal effect, phytotoxicity). Also, the “Lindernia procumbens post” value with Lindernia procumbens [3] is on record as 5 (100% herbicidal effect, phytotoxicity). For the same molecule, the “Scirpus juncoides post” value in the assay on Scirpus juncoides [4] was 4 (90%-99% herbicidal effect, phytotoxicity).

With `CCC1(C(C)C)CCN(Cc2ccccc2N(C(=O)OCC(C)C)S(=O)(=O)C(F)(F)F)C(=O)O1` (racemic) [Compound 1-455], the “Lindernia procumbens pre” value with Lindernia procumbens [1] is reported as 5 (100% herbicidal effect, phytotoxicity). In the assay on Scirpus juncoides [2], the “Scirpus juncoides pre” value is given as 5 (100% herbicidal effect, phytotoxicity). Moreover, in the assay on Echinochloa crus-galli, the “Echinochloa crus-galli post” value is listed as 5 (100% herbicidal effect, phytotoxicity). In addition, in the assay with Lindernia procumbens [3], the “Lindernia procumbens post” value is 5 (100% herbicidal effect, phytotoxicity). Moreover, the “Scirpus juncoides post” value in the assay on Scirpus juncoides [4] is 4 (90%-99% herbicidal effect, phytotoxicity).

As for `CCOC(=O)N(c1ccccc1CN1CCC(C)(Cc2ccccc2F)OC1=O)S(=O)(=O)C(F)(F)F` (racemic) [Compound 1-463], the “Lindernia procumbens pre” value in the assay with Lindernia procumbens [1] is on record as 5 (100% herbicidal effect, phytotoxicity). For the same molecule, the “Scirpus juncoides pre” value in the assay on Scirpus juncoides [2] was 5 (100% herbicidal effect, phytotoxicity). Also, the “Echinochloa crus-galli post” value with Echinochloa crus-galli is 4 (90%-99% herbicidal effect, phytotoxicity). Also, the “Lindernia procumbens post” value in the assay on Lindernia procumbens [3] was 5 (100% herbicidal effect, phytotoxicity). The “Scirpus juncoides post” value in the assay on Scirpus juncoides [4] is 4 (90%-99% herbicidal effect, phytotoxicity).

As for `CCCC1(CC)CCN(Cc2ccccc2NS(=O)(=O)C(F)(F)F)C(=O)O1` (racemic) [Compound 1-494], the “Lindernia procumbens pre” value with Lindernia procumbens [1] is 5 (100% herbicidal effect, phytotoxicity). Further, in the assay on Scirpus juncoides [2], the “Scirpus juncoides pre” value is on record as 5 (100% herbicidal effect, phytotoxicity). Further, the “Echinochloa crus-galli post” value in the assay with Echinochloa crus-galli is reported as 4 (90%-99% herbicidal effect, phytotoxicity). In the assay with Lindernia procumbens [3], the “Lindernia procumbens post” value is 5 (100% herbicidal effect, phytotoxicity). Further, in the assay on Scirpus juncoides [4], the “Scirpus juncoides post” value is listed as 4 (90%-99% herbicidal effect, phytotoxicity).

Consider `CCCC1(CC)CCN(Cc2ccccc2N(C(=O)OCC)S(=O)(=O)C(F)(F)F)C(=O)O1` (racemic) [Compound 1-496], for which the “Lindernia procumbens pre” value in the assay on Lindernia procumbens [1] is 5 (100% herbicidal effect, phytotoxicity). The “Scirpus juncoides pre” value in the assay with Scirpus juncoides [2] is reported as 5 (100% herbicidal effect, phytotoxicity). In addition, the “Echinochloa crus-galli post” value in the assay with Echinochloa crus-galli is listed as 4 (90%-99% herbicidal effect, phytotoxicity). The “Lindernia procumbens post” value with Lindernia procumbens [3] is recorded as 5 (100% herbicidal effect, phytotoxicity). In the assay on Scirpus juncoides [4], the “Scirpus juncoides post” value is recorded as 4 (90%-99% herbicidal effect, phytotoxicity).

Take `CCCC1(CC)CCN(Cc2ccccc2N(C(=O)OCC(C)C)S(=O)(=O)C(F)(F)F)C(=O)O1` (racemic) [Compound 1-499]: in the assay with Lindernia procumbens [1], the “Lindernia procumbens pre” value is 5 (100% herbicidal effect, phytotoxicity). Moreover, the “Scirpus juncoides pre” value with Scirpus juncoides [2] was 5 (100% herbicidal effect, phytotoxicity). The “Echinochloa crus-galli post” value with Echinochloa crus-galli is on record as 4 (90%-99% herbicidal effect, phytotoxicity). Further, in the assay on Lindernia procumbens [3], the “Lindernia procumbens post” value was 5 (100% herbicidal effect, phytotoxicity). Further, in the assay with Scirpus juncoides [4], the “Scirpus juncoides post” value was 4 (90%-99% herbicidal effect, phytotoxicity).

For the molecule `CCCC1(CC)CCN(Cc2ccccc2N(C(=O)Oc2ccccc2)S(=O)(=O)C(F)(F)F)C(=O)O1` (racemic) [Compound 1-501], in the assay on Lindernia procumbens [1], the “Lindernia procumbens pre” value is 5 (100% herbicidal effect, phytotoxicity). The “Scirpus juncoides pre” value in the assay on Scirpus juncoides [2] was 5 (100% herbicidal effect, phytotoxicity). The “Echinochloa crus-galli post” value in the assay on Echinochloa crus-galli is given as 5 (100% herbicidal effect, phytotoxicity). Further, the “Lindernia procumbens post” value in the assay on Lindernia procumbens [3] is on record as 5 (100% herbicidal effect, phytotoxicity). For the same molecule, the “Scirpus juncoides post” value in the assay with Scirpus juncoides [4] is listed as 4 (90%-99% herbicidal effect, phytotoxicity).

As to `O=C1OCCCCN1Cc1ccccc1NS(=O)(=O)C(F)(F)F` [2-1], the “Lindernia procumbens pre” value in the assay on Lindernia procumbens [1] is 4 (90%-99% herbicidal effect, phytotoxicity). In the assay on Scirpus juncoides [2], the “Scirpus juncoides pre” value is 4 (90%-99% herbicidal effect, phytotoxicity). Also, the “Echinochloa crus-galli post” value with Echinochloa crus-galli is listed as 4 (90%-99% herbicidal effect, phytotoxicity). Also, the “Lindernia procumbens post” value in the assay on Lindernia procumbens [3] was 4 (90%-99% herbicidal effect, phytotoxicity). Besides, the “Scirpus juncoides post” value in the assay on Scirpus juncoides [4] is 4 (90%-99% herbicidal effect, phytotoxicity).

Regarding `CCOC(=O)N(c1ccccc1CN1CCCCOC1=O)S(=O)(=O)C(F)(F)F` [2-3], the “Lindernia procumbens pre” value in the assay with Lindernia procumbens [1] is listed as 4 (90%-99% herbicidal effect, phytotoxicity). In addition, the “Scirpus juncoides pre” value in the assay with Scirpus juncoides [2] is reported as 4 (90%-99% herbicidal effect, phytotoxicity). For the same molecule, the “Echinochloa crus-galli post” value in the assay on Echinochloa crus-galli was 4 (90%-99% herbicidal effect, phytotoxicity). Also, the “Lindernia procumbens post” value with Lindernia procumbens [3] is 4 (90%-99% herbicidal effect, phytotoxicity). Further, in the assay with Scirpus juncoides [4], the “Scirpus juncoides post” value is reported as 4 (90%-99% herbicidal effect, phytotoxicity).

For `CCCOC(=O)N(c1ccccc1CN1CCCCOC1=O)S(=O)(=O)C(F)(F)F` [2-4], the “Lindernia procumbens pre” value with Lindernia procumbens [1] is on record as 4 (90%-99% herbicidal effect, phytotoxicity). Also, in the assay on Scirpus juncoides [2], the “Scirpus juncoides pre” value is 4 (90%-99% herbicidal effect, phytotoxicity). Besides, the “Echinochloa crus-galli post” value in the assay with Echinochloa crus-galli is listed as 4 (90%-99% herbicidal effect, phytotoxicity). Further, the “Lindernia procumbens post” value in the assay with Lindernia procumbens [3] is recorded as 4 (90%-99% herbicidal effect, phytotoxicity). In addition, in the assay with Scirpus juncoides [4], the “Scirpus juncoides post” value is given as 4 (90%-99% herbicidal effect, phytotoxicity).
